Legend:
[1] = target: Glutamate carboxypeptidase 2 (Homo sapiens, UniProt Q04609); test: Irreversible inhibition of PSMA (unknown origin)
[2] = Drug uptake in human PC-3 cells with PSMA knockout assessed as increase in fluorescence at 10 uM incubated for 10 mins by DAPI staining based confocal microscopy analysis; assay type: ADME, cell-based; settings: pc-3, 10 min
[3] = tested on: PC-3; test: Anticancer activity against human PC-3 cells with PSMA knockout cells assessed as reduction in cell viability measured after 72 hrs by celltiter-glo assay; assay type: functional, cell-based; settings: dose 0.313-20 µM
[4] = Drug uptake in PSMA positive human LNCaP C4-2B cells assessed as increase in fluorescence at 10 uM incubated for 10 mins in presence of CTT1057 by DAPI staining based confocal microscopy analysis; assay type: ADME, cell-based
[5] = tested on: LNCaP C4-2B; test: Anticancer activity against PMSA positive human LNCaP C4-2B cells assessed as reduction in cell viability measured after 72 hrs by celltiter-glo assay; assay type: functional, cell-based; settings: dose 0.313-20 µM
[6] = Drug uptake in PSMA positive human LNCaP C4-2B cells assessed as increase in fluorescence at 10 uM incubated for 10 mins by DAPI staining based confocal microscopy analysis; assay type: ADME, cell-based

Glutamate carboxypeptidase 2, sequence (Q04609 whole entry): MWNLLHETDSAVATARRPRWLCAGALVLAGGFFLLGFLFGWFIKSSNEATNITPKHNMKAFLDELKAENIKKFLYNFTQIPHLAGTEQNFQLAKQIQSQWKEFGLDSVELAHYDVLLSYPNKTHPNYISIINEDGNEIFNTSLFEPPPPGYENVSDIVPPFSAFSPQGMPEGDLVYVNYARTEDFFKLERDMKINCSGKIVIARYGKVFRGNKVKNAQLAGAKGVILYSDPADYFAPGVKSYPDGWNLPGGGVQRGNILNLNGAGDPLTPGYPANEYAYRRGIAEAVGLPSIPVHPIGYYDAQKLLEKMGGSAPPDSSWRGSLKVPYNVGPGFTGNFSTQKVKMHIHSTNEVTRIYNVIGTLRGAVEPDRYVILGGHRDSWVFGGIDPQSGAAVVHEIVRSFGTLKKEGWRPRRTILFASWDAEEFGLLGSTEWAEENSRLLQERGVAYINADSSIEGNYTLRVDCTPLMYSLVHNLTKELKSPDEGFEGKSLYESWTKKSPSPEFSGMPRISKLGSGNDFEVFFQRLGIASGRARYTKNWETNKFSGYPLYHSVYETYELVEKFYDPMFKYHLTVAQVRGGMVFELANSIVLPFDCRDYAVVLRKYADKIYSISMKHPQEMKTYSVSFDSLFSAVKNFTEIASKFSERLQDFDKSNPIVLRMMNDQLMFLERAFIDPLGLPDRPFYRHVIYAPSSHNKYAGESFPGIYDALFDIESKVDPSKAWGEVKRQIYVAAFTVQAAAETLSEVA

## COc1cccc2c1C(=O)c1c(O)c3c(c(O)c1C2=O)C[C@@](O)(C(=O)CO)C[C@@H]3O[C@H]1C[C@H](N)[C@H](O)[C@H](C)O1 [DOXORUBICIN]
[1]
  IC50: 10 µM

## COc1cccc2c1C(=O)c1c(O)c3c(c(O)c1C2=O)C[C@@](O)(C(=O)CO)C[C@@H]3O[C@H]1C[C@H](NC(=O)OCc2ccc(NC(=O)[C@H](CCCNC(N)=O)NC(=O)[C@@H](NC(=O)c3ccc(Cn4nnc5c4-c4ccccc4CN(C(=O)CCCCC(=O)NCCCCCC(=O)N[C@@H](CCC(=O)N[C@@H](CCCOP(=O)(O)N[C@@H](CCC(=O)O)C(=O)O)C(=O)O)C(=O)O)c4ccccc4-5)cc3)C(C)C)cc2)[C@H](O)[C@H](C)O1
[2]
  Drug uptake: Not Active
[3]
  Activity: Dose-Dependent Effect
[4]
  Drug uptake: Not Active
[5]
  Activity: Dose-Dependent Effect
[6]
  Drug uptake: Active
